Our source for the IC50 values is patent publication US20110301142A1, “ANTAGONISTS OF LYSOPHOSPHATIDIC ACID RECEPTORS” (priority 2008, published 2011).

One test addresses T1, human LPA3 (Homo sapiens, UniProt Q9UBY5).
T1 construct: The full-length cDNA fragment for human LPA3 was obtained by PCR from the vector; expressed in transfected cells; cDNA from the Missouri S&T cDNA Resource Center
T1 sequence (Q9UBY5 1-353): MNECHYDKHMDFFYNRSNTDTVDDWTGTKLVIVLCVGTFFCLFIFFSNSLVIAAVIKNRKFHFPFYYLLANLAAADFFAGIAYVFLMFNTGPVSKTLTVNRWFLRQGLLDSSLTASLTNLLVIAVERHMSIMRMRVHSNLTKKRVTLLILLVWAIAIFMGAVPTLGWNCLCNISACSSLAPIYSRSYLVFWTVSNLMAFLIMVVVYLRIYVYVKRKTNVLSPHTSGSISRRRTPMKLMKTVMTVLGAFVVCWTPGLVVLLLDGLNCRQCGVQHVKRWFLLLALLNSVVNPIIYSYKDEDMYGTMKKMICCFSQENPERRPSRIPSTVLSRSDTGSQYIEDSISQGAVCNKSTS
The test can be described thus: LPA3 calcium flux assay. To be noted: Human LPA3 expressing CHO cells, stimulated with 10 nM LPA; read-out: HLPA3 Ca Flux IC50. The format is cell-based. In a few lines: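 Stably transfected CHO cells, serum-starved overnight, loaded with Calcium 4 dye 1 h at 37 °C in HBSS/20 mM Hepes with 0.3% fatty-acid-free HSA. Compounds preincubated 30 min at room temperature, then cells stimulated with 10 nM LPA; intracellular Ca2+ read by fluorescence; IC50 from titration curves.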
Background: A change in cytosolic calcium serves as a functional read-out for many receptors and channels.

The target in another test is T2, human LPA1 (Homo sapiens, UniProt Q92633).
T2 construct: the full-length cDNA for human LPA1 was obtained by PCR of the reverse transcription reaction; expressed in transfected cells
T2 sequence (Q92633 whole entry): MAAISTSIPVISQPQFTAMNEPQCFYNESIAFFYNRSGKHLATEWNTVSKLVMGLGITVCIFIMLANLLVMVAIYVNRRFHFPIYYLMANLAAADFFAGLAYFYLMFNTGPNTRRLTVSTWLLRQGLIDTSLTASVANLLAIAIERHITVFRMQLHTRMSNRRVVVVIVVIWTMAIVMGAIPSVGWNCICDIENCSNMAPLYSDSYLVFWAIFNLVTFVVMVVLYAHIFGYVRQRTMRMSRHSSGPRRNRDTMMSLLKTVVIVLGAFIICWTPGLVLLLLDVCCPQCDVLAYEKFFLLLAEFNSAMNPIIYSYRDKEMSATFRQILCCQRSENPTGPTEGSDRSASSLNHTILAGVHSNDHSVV
Put plainly: LPA1 calcium flux assay (HLPA1 Ca Flux). To be noted: Human LPA1 expressing CHO cells, stimulated with 10 nM LPA. The format is cell-based. In a few lines: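 CHO cells stably expressing cloned human LPA1, serum-starved overnight and loaded with Calcium 4 dye, were preincubated 30 min at room temperature with compound. Cells were then challenged with 10 nM LPA and intracellular Ca2+ measured; IC50 values came from titration curves.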

On to `Cc1noc(-c2ccc(-c3ccc(C(C)(C)C(=O)O)cc3)cc2)c1NC(=O)O[C@H](C)c1ccccc1F` [Compound 1-90, 2-(4′-{4-[(R)-1-(2-Fluoro-phenyl)-ethoxycarbonylamino]-3-methyl-isoxazol-5-yl}-biphenyl-4-yl)-2-methyl-propionic acid], for which the IC50 (usually the concentration needed to halve the response being measured) at human LPA3 was 1000 to 50000 nM; at human LPA1 it was less than 300 nM.
Take `Cc1noc(-c2ccc(-c3ccc(C(C)C(=O)O)cc3)cc2)c1NC(=O)O[C@H](C)c1ccccc1F` (stereo partly drawn) [Compound 1-91, 2-(4′-{4-[(R)-1-(2-Fluoro-phenyl)-ethoxycarbonylamino]-3-methyl-isoxazol-5-yl}-biphenyl-4-yl)-propionic acid]: the IC50 was 1000 to 50000 nM at human LPA3 and less than 300 nM on human LPA1.
As for `Cc1noc(-c2ccc(-c3ccc(C(C)C(=O)O)cc3)cc2)c1NC(=O)O[C@H](C)c1ccccc1Cl` (stereo partly drawn) [Compound 1-92, 2-(4′-{4-[(R)-1-(2-Chloro-phenyl)-ethoxycarbonylamino]-3-methyl-isoxazol-5-yl}-biphenyl-4-yl)-propionic acid], the IC50 is 300 to 1000 nM at human LPA3 and less than 300 nM on human LPA1.
As for `Cc1noc(-c2ccc(-c3nc(C(=O)O)cs3)cc2)c1NC(=O)OC(C)c1ccccc1Cl` (stereo not shown) [Compound 1-93, 2-(4-{4-[1-(2-Chloro-phenyl)-ethoxycarbonylamino]-3-methyl-isoxazol-5-yl}-phenyl)-thiazole-4-carboxylic acid], the IC50 on human LPA3 was 1000 to 50000 nM; at human LPA1 it was less than 300 nM.
For `Cc1noc(-c2ccc(-c3ncc(C(=O)O)s3)cc2)c1NC(=O)OC(C)c1ccccc1Cl` (stereo not shown) [Compound 1-94, 2-(4-{4-[1-(2-Chloro-phenyl)-ethoxycarbonylamino]-3-methyl-isoxazol-5-yl}-phenyl)-thiazole-5-carboxylic acid], the IC50 at human LPA3 is 1000 to 50000 nM; on human LPA1, less than 300 nM.
As to `COC(=O)Cc1cccc(Oc2ccc(-c3onc(C)c3NC(=O)O[C@H](C)c3ccccc3F)cc2)c1` [Compound 1-95, [3-(4-{4-[1-(2-Fluoro-phenyl)-ethoxycarbonylamino]-3-methyl-isoxazol-5-yl}-phenoxy)-phenyl]acetic acid methyl ester], the IC50 at human LPA3 is 1000 to 50000 nM; on human LPA1 it was less than 300 nM.
Take `Cc1noc(-c2ccc(Oc3cccc(CC(=O)O)c3)cc2)c1NC(=O)O[C@H](C)c1ccccc1F` [Compound 1-96, [3-(4-{4-[1-(2-Fluoro-phenyl)-ethoxycarbonylamino]-3-methyl-isoxazol-5-yl}-phenoxy)-phenyl]-acetic acid]: the IC50 at human LPA3 was 1000 to 50000 nM; on human LPA1, less than 300 nM.
In the case of `Cc1noc(-c2ccc(CS(=O)(=O)c3ccc(CC(=O)O)cc3)cc2)c1NC(=O)OC(C)c1ccccc1Cl` (stereo not shown) [Compound 1-97, [4-(4-{4-[1-(2-Chloro-phenyl)-ethoxycarbonylamino]-3-methyl-isoxazol-5-yl}-phenylmethanesulfonyl)-phenyl]-acetic acid], the IC50 at human LPA3 is 1000 to 50000 nM; at human LPA1, less than 300 nM.
For `Cc1noc(-c2ccc(CS(=O)(=O)c3cccc(CC(=O)O)c3)cc2)c1NC(=O)OC(C)c1ccccc1Cl` (stereo not shown) [Compound 1-98, [3-(4-{4-[1-(2-Chloro-phenyl)-ethoxycarbonylamino]-3-methyl-isoxazol-5-yl}-phenylmethanesulfonyl)-phenyl]acetic acid], the figures for the IC50 on human LPA3 and on human LPA1 were more than 50000 nM and less than 300 nM, respectively.
Take `Cc1noc(-c2ccc(CS(=O)(=O)c3ccccc3CC(=O)O)cc2)c1NC(=O)OC(C)c1ccccc1Cl` (stereo not shown) [Compound 1-99, [2-(4-{4-[1-(2-Chloro-phenyl)-ethoxycarbonylamino]-3-methyl-isoxazol-5-yl}-phenylmethanesulfonyl)-phenyl]-acetic acid]: the figures for the IC50 on human LPA3 and at human LPA1 were 1000 to 50000 nM and less than 300 nM, respectively.
Take `Cc1noc(-c2ccc(COc3ccc(CC(=O)O)cc3)cc2)c1NC(=O)OC(C)c1ccccc1Cl` (stereo not shown) [Compound 1-100, [4-(4-{4-[1-(2-Chloro-phenyl)-ethoxycarbonylamino]-3-methyl-isoxazol-5-yl}-benzyloxy)-phenyl]-acetic acid]: the results for the IC50 on human LPA3 and at human LPA1 were 1000 to 50000 nM and less than 300 nM, respectively.
